Measured values reported in US20190134120A1, “METHODS FOR THE TREATMENT OF BLADDER CANCER” (Viralytics Limited, priority 2013, published 2019).

How the values were obtained:
[1] = format: physicochemical, Human; conditions: 3x10^6 TCID50; 37 C for one hour in healthy donor urine
Experimental: (§1) Human cancer bladder tissue was disaggregated and primary tumour cells were isolated. These were tested for bladder tumour markers (Cytokeratin 7) (data not shown). Primary tumour cells were infected at varying MOIs and incubated at 37 C for 72 hours then photographed and analysed by MTS ([3-(4,5-dimethylthiazol-2-yl)-5-(3-carboxymethoxyphenyl)-2-(4-sulfophenyl)-2H-tetrazolium, inner salt) assay. (A) CVA21 MOI 3. (B) Uninfected cells. (C) MTS assay. (D) CVA21 (3×10^6 TCID50) was incubated at 37 C for one hour in healthy donor urine. Resulting virus was titrated by TCID50 on SK-MEL-28 cells for 5 days.
In brief, SK-MEL-28 cells were plated at 1×10^4 cells per well (100 μL) of a 96 well tray in 10% DMEM and incubate at 37° C. o/n. 37.5 ul of stock CVA21 virus (7.75e7 TCID50/ml) was added 462.5 ul of normal health urine or Hanks or PBS or HANKS for 1 hrs at 37° C. After which urine/CVA21 was serially diluted 1:10 in 2% DMEM. The media was removed from the cells and 100 ul of each dilution was added to one of ten wells. The assay was then incubated at 37° C. for 5 days, after which the media was removed from the cells and 100 ul of 0.1% Glutaldehyde (Sigma) in PBS was added. […]. TCID50 is calculated by the Spearman & Kärber algorithm as described in Hierholzer & Killington (1996), Virology Methods Manual, p. […]

[2] = test system: human bladder tumor tissue; assay: Ex vivo infection of human bladder tumour tissue by CVA21 (immunostaining); conditions: 3.875x10^6 TCID50 CVA21; 48 hours post infection
Experimental: Primary bladder cancer tissue was received from the operating theatre of the Royal Surrey County Hospital UK in a dry pot. The tissue was cut into small pieces of between 2-4 mm and placed in 0.5 ml 10% FCS/DMEM with Pen/Strep and GLUT containing 3.875×10^6 TCID50 of CVA21. The infected tissue was incubated at 37° C., 5% CO2 for 48 hrs. Tissue was then fixed in 10% neutral buffered formalin for 18-24 hours.
Tissue pieces originating from the same human bladder tumour were either infected with CVA21 or left uninfected. Immunofluorescence and immunostaining for coxsackievirus was performed 48 hours post infection.
In brief, bladder cancer tissue was fixed using 10% neutral buffered formalin for 18-24 hours. After fixation, the tissue block was embedded in paraffin, and 4 μm sections cut and affixed onto slides. The sections were dried overnight at 37° C., deparaffinized, and rehydrated. Endogenous peroxidase was blocked using methanol/0.3% H202 for 20 min. The sections were then subjected to heat mediated antigen retrieval in a microwave using citrate buffer (10 mM, pH 6.0). Following washing, the slides were blocked with 2.5% horse serum and endogenous biotin blocked using an Avidin/Biotin blocking kit (SP-2001, VectorLabs) according to the manufacturer's instructions. […]

[3] = test system: late stage melanoma patients; conditions: Phase II, intralesional treatment, cited from earlier work
KU19-19 cells = assay: CVA21 cytotoxicity, KU19-19 cells; format: cell-based, Human; conditions: FIG. 2b
bladder cell line T24 = assay: Synergy between MMC and CVA21, dose matrix, T24 cells; format: cell-based, Human; conditions: CVA21 (0-50 TCID50/cell) with MMC (0-3.36 ug/ml), at low mitomycin concentrations, especially below 0.2 ug/ml
Experimental: In brief, 5637/T24/TCCSUP-1 cells were plated at 1×10^4 cells per well (100 μL) of a 96 well tray and incubated at 37° C. for 24 hrs. Mitomycin C was diluted in 10% FCS medium in doubling dilutions from between 2.8 to 0.02 ug/ml for 5637 cells and between 3.36 to 0.03 ug/ml for T24 cells. CVA21 was then diluted between MOI 25-0.196 in doubling dilutions using each dilution of Mitomycin C. The cells were then treated with each dilution of CVA21/Mitomycin C and incubated for 72 hrs. The medium was removed and 100 μl of diluted MTS reagent (Promega) was added. The plates were then incubated for 1-4 hrs and absorbance read at 492 nm.

[4] = test system: Patient derived bladder tumour cell line; assay: Infection of patient derived primary bladder tumour cells with CVA21; format: cell-based, Human; conditions: varying MOIs; 72 hours; MTS
Experimental: as §1

T24 cells = assay: Synergy between CVA21 and radiotherapy, T24 cells; format: cell-based, Human
Experimental: Combining CVA21 with the radiotherapy has shown exceptional synergy. When 5637 cells were irradiated (4-10 Gy) then 24 hours later exposed to CVA21 (multiplicities of infection 0.961-12.6), clear synergy was seen (FIG. 3a). […] A comprehensive experimental and analytic method was implemented for this work which allows calculation of combination index values at all data points, and therefore identification of areas of high synergy across the whole response surface (Greco et al. 1995) (FIGS. 3b, 3c).
In brief, T24/5637 cells were plated at 0.25×10^4/0.5×10^4 cells per well (100 μL) of a 96 well tray and incubated at 37° C. for 24 hrs. Day 2—An extra 100 ul 10% FCS, media was added to the cells. Then they were treated with Rad (Gy 0, 4, 6, 8, 10) on a clinical Varian linear accelerator in St Luke's Cancer Centre, Royal Surrey Hospital UK. Day 2—The plates were returned to the lab and incubated at 37° C. for 24 hrs. Day 3—The medium was removed and 100 ul of CVA21 (MOI 12.5-0.1 in 2% FCS medium) was added and incubated at 37° C. for 72 hrs. Day 6—The medium was removed and 100 μl of fresh 10% FCS medium added and incubated for 24 hrs. Day 7—The medium was removed and 100 μl of diluted MTS reagent (Promega) was added. The plates were then incubated for 1-2 hr and read absorbance at 492 nm. […]

VMCUB-1 cells = assay: CVA21 cytotoxicity, VMCUB-1 cells; format: cell-based, Human; conditions: FIG. 2b

Substance: Coxsackievirus A21 [CVA21]
- stability in human urine [1]: stable
- infectability of ex-vivo tumour tissue [2]: highly infectable
- tolerability [3]: generally being well-tolerated
- clinical activity ([3]; late stage melanoma): activity in both injected lesions and non-injected distant lesions
- susceptibility of cell line to CVA21 (KU19-19 cells): resistant
- CI values (bladder cell line T24): < 1
- infectability of primary tumour cells [4]: highly infectable
- interaction of CVA21 with radiation (T24 cells): Synergy between radiation and CVA21 was confirmed
- susceptibility of cell line to CVA21 (VMCUB-1 cells): resistant
